Data: patent US10954214B2 (Janssen Pharmaceutica NV, priority 2016, dated 2021)

Tests used:
OCI-Ly3 cells = assay: 4-day proliferation assay, OCI-Ly3; format: cell-based, human; conditions: Homo sapiens, 96 h, 4 days incubation, CellTiterGLO, read-out: Anti-proliferation: OCI-LY-3 IC50
Procedure, shortened: (§1)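 Each line was plated at 10,000 cells per well for linear growth, with no beta-mercaptoethanol during the assay. OCI-Ly3 cells were below passage 10.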

[1] = system: IL10 secretion by OCI-LY3 ABC-DLBCL cells; assay: Human IL10 Mesoscale assay (OCI-LY3); format: cell-based; conditions: Homo sapiens, 24 h
Procedure, shortened: (§2)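 Compounds tested from 15 μM to 58.6 nM (twofold, 9 concentrations) on 100,000 cells per well over 24 h at 37° C, without beta-mercaptoethanol. Secreted cytokine in supernatant detected by MSD electrochemiluminescence; scaling used DMSO as maximum and RN486 as full inhibition.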

[2] = system: IL10 secretion by TMD8 ABC-DLBCL cells; assay: Human IL10 Mesoscale assay (TMD-8); format: cell-based; conditions: Homo sapiens, TMD8; TMD-8 cells, 24 h
Procedure, shortened: as §2

TMD8 cells = assay: 4-day proliferation assay, TMD8; format: cell-based; conditions: Homo sapiens, 96 h, 4 days incubation, CellTiterGLO, read-out: Anti-proliferation: TMD-8 IC50
Procedure, shortened: as §1

[3] = system: IL6 secretion by TMD8 ABC-DLBCL cells; assay: Human IL6 Mesoscale assay (TMD-8); format: cell-based; conditions: Homo sapiens, TMD8; TMD-8 cells, 24 h
Procedure, shortened: as §2

[4] = system: IL6 secretion by OCI-LY3 ABC-DLBCL cells; assay: Human IL6 Mesoscale assay (OCI-LY3); format: cell-based; conditions: Homo sapiens, 24 h
Procedure, shortened: as §2

[5] = target: full-length MALT1 protein (Strep-MALT1(1-824)-His) (Homo sapiens (Human), UniProt Q9UDY8); assay: MALT1 Biochemical Protease Assay (Ac-LRSR-AMC substrate); conditions: 10 nM FL MALT1, 200 μM Ac-LRSR-AMC, 4 h at RT; read-out: MALT1_Biochemical activity (Ac-LRSR-amc) IC50
Chain of full-length MALT1 protein (Strep-MALT1(1-824)-His) (Q9UDY8 whole entry): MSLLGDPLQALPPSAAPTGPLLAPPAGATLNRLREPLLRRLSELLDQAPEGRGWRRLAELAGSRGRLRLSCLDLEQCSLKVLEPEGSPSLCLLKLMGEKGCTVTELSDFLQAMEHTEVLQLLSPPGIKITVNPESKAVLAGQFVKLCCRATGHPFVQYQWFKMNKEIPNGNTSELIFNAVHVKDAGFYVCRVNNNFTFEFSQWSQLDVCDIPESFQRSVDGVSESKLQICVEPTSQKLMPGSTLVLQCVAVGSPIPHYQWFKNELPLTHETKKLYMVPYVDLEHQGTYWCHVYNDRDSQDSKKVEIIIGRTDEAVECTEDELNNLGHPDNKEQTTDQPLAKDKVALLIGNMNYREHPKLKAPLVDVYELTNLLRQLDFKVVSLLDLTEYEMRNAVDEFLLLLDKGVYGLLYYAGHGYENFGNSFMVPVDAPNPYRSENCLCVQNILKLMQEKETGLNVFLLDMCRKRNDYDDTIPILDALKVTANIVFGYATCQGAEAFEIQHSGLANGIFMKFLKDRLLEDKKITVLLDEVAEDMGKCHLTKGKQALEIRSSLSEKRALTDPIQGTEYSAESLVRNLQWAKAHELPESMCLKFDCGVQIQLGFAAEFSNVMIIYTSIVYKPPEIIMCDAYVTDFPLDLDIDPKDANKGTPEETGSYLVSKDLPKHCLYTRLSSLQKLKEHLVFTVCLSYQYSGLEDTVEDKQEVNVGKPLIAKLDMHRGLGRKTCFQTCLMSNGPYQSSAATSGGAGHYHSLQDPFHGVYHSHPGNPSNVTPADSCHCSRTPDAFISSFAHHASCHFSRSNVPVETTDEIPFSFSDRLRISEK
Procedure, shortened: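 Fluorescence from AMC release off the quenched LRSR substrate was read after a 4 h reaction at RT. Values were normalised to no-enzyme and uninhibited controls and fitted for IC50 and Hill coefficient.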

Row | Structure (SMILES) | IC50 (OCI-Ly3 cells) [nM] | IC50 [1] [nM] | IC50 [2] [nM] | IC50 (TMD8 cells) [nM] | IC50 [3] [nM] | IC50 [4] [nM] | IC50 [5] [nM]
1 | N#Cc1cc(NC(=O)c2cnn(-c3ccnc4ccccc34)c2C(F)(F)F)ccc1-n1nccn1 | 411 | 40 | 100 | 3800 | 110 | 34 | –
2 | O=C(Nc1cnc(-n2nccn2)c(Cl)c1)c1cnn(-c2cccc3ncsc23)c1C(F)(F)F [Cpd 153, 1-(benzo[d]thiazol-7-yl)-N-(5-chloro-6-(2H-1,2,3-triazol-2-yl)pyridin-3-yl)-5-(trifluoromethyl)-1H-pyrazole-4-carboxamide] | 265 | 81 | 162 | 3800 | 141 | 54 | 12
3 | O=C(Nc1cnc(-n2nccn2)c(Cl)c1)c1cnn(-c2cccc3scnc23)c1C(F)(F)F [Cpd 306, 1-(benzo[d]thiazol-4-yl)-N-(5-chloro-6-(2H-1,2,3-triazol-2-yl)pyridin-3-yl)-5-(trifluoromethyl)-1H-pyrazole-4-carboxamide] | 540 | 2630 | > 3020 | 1510 | > 3020 | > 3020 | 58
4 | N#Cc1cc(NC(=O)c2cnn(-c3cncc4c(F)cccc34)c2C(F)(F)F)cnc1-n1nccn1 [Cpd 118, N-(5-cyano-6-(2H-1,2,3-triazol-2-yl)pyridin-3-yl)-1-(8-fluoroisoquinolin-4-yl)-5-(trifluoromethyl)-1H-pyrazole-4-carboxamide] | 158 | 12 | – | 832 | – | 17 | 15
5 | Nc1ncc(-n2ncc(C(=O)Nc3cnc(-n4nccn4)c(Cl)c3)c2C(F)(F)F)c2ccccc12 [Cpd 155, 1-(1-aminoisoquinolin-4-yl)-N-(5-chloro-6-(2H-1,2,3-triazol-2-yl)pyridin-3-yl)-5-(trifluoromethyl)-1H-pyrazole-4-carboxamide] | 302 | 68 | – | 1380 | – | 93 | 19
6 | N#Cc1cc(NC(=O)c2cnn(-c3cccc4c(F)cccc34)c2C(F)(F)F)cnc1-n1nccn1 [Cpd 122, N-(5-cyano-6-(2H-1,2,3-triazol-2-yl)pyridin-3-yl)-1-(5-fluoronaphthalen-1-yl)-5-(trifluoromethyl)-1H-pyrazole-4-carboxamide] | 132 | 56 | – | 162 | – | 52 | 13
7 | N#Cc1cnn(-c2ncc(NC(=O)c3cnn(-c4cccc5ncccc45)c3C(F)(F)F)cc2Cl)n1 [Cpd 179, N-(5-chloro-6-(4-cyano-2H-1,2,3-triazol-2-yl)pyridin-3-yl)-1-(quinolin-5-yl)-5-(trifluoromethyl)-1H-pyrazole-4-carboxamide] | 763 | 174 | – | 1950 | – | 288 | 42
8 | Cn1nc(-c2ncc(NC(=O)c3cnn(-c4cccc5ncccc45)c3C(F)(F)F)cc2C#N)cc1N [Cpd 181, N-(6-(5-amino-1-methyl-1H-pyrazol-3-yl)-5-cyanopyridin-3-yl)-1-(quinolin-5-yl)-5-(trifluoromethyl)-1H-pyrazole-4-carboxamide] | 1500 | 110 | – | > 7940 | – | 141 | 38
9 | Cc1nc(-n2nccn2)c(Cl)cc1NC(=O)c1cnn(-c2cccc3c(=O)[nH]ccc23)c1C(F)(F)F [Cpd 112, N-(5-chloro-2-methyl-6-(2H-1,2,3-triazol-2-yl)pyridin-3-yl)-1-(1-oxo-1,2-dihydroisoquinolin-5-yl)-5-(trifluoromethyl)-1H-pyrazole-4-carboxamide] | 966 | 98 | – | 6310 | – | 115 | 17
10 | N#Cc1cc(NC(=O)c2cnn(-c3cccc4nnsc34)c2C(F)(F)F)cnc1-n1nccn1 [Cpd 119, 1-(benzo[d][1,2,3]thiadiazol-7-yl)-N-(5-cyano-6-(2H-1,2,3-triazol-2-yl)pyridin-3-yl)-5-(trifluoromethyl)-1H-pyrazole-4-carboxamide] | 193 | 40 | – | 355 | – | 72 | 13
11 | Cc1nc(-n2nccn2)c(C#N)cc1NC(=O)c1cnn(-c2cccc3c(=O)[nH]ccc23)c1C(F)(F)F [Cpd 176, N-(5-cyano-2-methyl-6-(2H-1,2,3-triazol-2-yl)pyridin-3-yl)-1-(1-oxo-1,2-dihydroisoquinolin-5-yl)-5-(trifluoromethyl)-1H-pyrazole-4-carboxamide] | 1590 | 95 | – | > 20000 | – | 117 | 45
12 | N#Cc1cc(NC(=O)c2cnn(-c3cccc4nccn34)c2C(F)(F)F)cnc1-n1nccn1 [Cpd 200, N-(5-cyano-6-(2H-1,2,3-triazol-2-yl)pyridin-3-yl)-1-(imidazo[1,2-a]pyridin-5-yl)-5-(trifluoromethyl)-1H-pyrazole-4-carboxamide] | 1390 | 282 | – | 7410 | – | 380 | 40
13 | O=C(Nc1cnc(-n2nccn2)c(Cl)c1)c1cnn(-c2cnc(O)c3ccccc23)c1C(F)(F)F [Cpd 448, N-(5-chloro-6-(2H-1,2,3-triazol-2-yl)pyridin-3-yl)-1-(1-hydroxyisoquinolin-4-yl)-5-(trifluoromethyl)-1H-pyrazole-4-carboxamide] | 550 | 79 | – | 5620 | – | 117 | 1290
14 | O=C(Nc1cc(Cl)c(-n2nccn2)cc1F)c1cnn(-c2cccc3c(=O)[nH]ccc23)c1C(F)(F)F [Cpd 172, N-(5-chloro-2-fluoro-4-(2H-1,2,3-triazol-2-yl)phenyl)-1-(1-oxo-1,2-dihydroisoquinolin-5-yl)-5-(trifluoromethyl)-1H-pyrazole-4-carboxamide] | 504 | 158 | – | 4790 | – | 204 | 69
15 | O=C(Nc1cnc(-c2nnco2)c(Cl)c1)c1cnn(-c2cccc3ncccc23)c1C(F)(F)F [Cpd 192, N-(5-chloro-6-(1,3,4-oxadiazol-2-yl)pyridin-3-yl)-1-(quinolin-5-yl)-5-(trifluoromethyl)-1H-pyrazole-4-carboxamide] | 593 | 42 | – | 4570 | – | 46 | 25
16 | O=C(Nc1cnc(-n2nccn2)c(Cl)c1)c1cnn(-c2cccc3nccn23)c1C(F)(F)F [Cpd 193, N-(5-chloro-6-(2H-1,2,3-triazol-2-yl)pyridin-3-yl)-1-(imidazo[1,2-a]pyridin-5-yl)-5-(trifluoromethyl)-1H-pyrazole-4-carboxamide] | 521 | 79 | – | 3630 | – | 117 | 41
17 | N#Cc1cc(NC(=O)c2cnn(-c3ccc(N)c4ncccc34)c2C(F)(F)F)cnc1-n1nccn1 [Cpd 326, 1-(8-aminoquinolin-5-yl)-N-(5-cyano-6-(2H-1,2,3-triazol-2-yl)pyridin-3-yl)-5-(trifluoromethyl)-1H-pyrazole-4-carboxamide] | 881 | 89 | – | 3240 | – | 105 | 45
